The source of these data is patent US9974778B2, “Substituted pyridinones as MGAT2 inhibitors” (BRISTOL-MYERS SQUIBB COMPANY, priority 2014, dated 2018).

The target in the first experiment is T1, Human MGAT-2 (Homo sapiens, UniProt Q3SYC2).
T1 construct: made in house; host or cells: Sf9 cells (membrane preparation)
T1 sequence (Q3SYC2 whole entry): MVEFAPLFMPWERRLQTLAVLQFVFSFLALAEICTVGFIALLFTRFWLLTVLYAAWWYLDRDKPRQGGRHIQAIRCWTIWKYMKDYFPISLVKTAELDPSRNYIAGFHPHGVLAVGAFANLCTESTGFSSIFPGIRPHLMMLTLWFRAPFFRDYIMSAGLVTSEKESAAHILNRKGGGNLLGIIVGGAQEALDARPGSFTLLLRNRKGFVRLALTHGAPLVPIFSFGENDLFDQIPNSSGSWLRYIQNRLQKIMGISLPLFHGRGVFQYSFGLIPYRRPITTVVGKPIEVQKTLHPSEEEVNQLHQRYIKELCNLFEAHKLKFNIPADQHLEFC
The experiment is described as follows: MGAT LCMS Assay. The class given is biochemical.
Details: not given
The protocol:
Assay plates were run through a fully automated robotics system and shaken for 5 seconds every minute for a total 10 minutes. The reactions were then quenched with 120 μL of ice cold methanol containing 1 μg/mL 1,2-distearoyl-rac-glycerol as the internal standard. Plates were shaken for 2 minutes and spun down to remove protein precipitation. After the spin, samples were transferred to LC/MS compatible PCR plates. For LC/MS analysis, a ThermoFisher Surveyor pump, utilizing a Waters […]® C8, 50×2.1 mm column, was used for the chromatography of enzyme products. The buffer system consists of 0.1% formic acid in water with a mobile phase consisting 0.1% formic acid in methanol. […] The first 0.5 minutes of each injection was diverted to waste to eliminate the presence of Phosphate buffer in the enzymatic reaction. The column was run at 0.6 mL/min and a temperature of 65° C. Mass spectrometry analysis of the samples was performed on a ThermoFisher Quantum Triple quad utilizing APCI (+) as the mode of ionization. […] The ratio of Diolein to internal standard (Peak Area Ratio) is utilized to calculate IC50 values.
On to `CCc1ccc(-c2cc(-c3ccc(OCCCCCC(F)(F)F)cc3C(F)(F)F)[nH]c(=O)c2-c2nn[nH]n2)s1` [Example 151, 4-(5-Ethylthiophen-2-yl)-3-(2H-tetrazol-5-yl)-6-(4-((6,6,6-trifluorohexyl)oxy)-2-(trifluoromethyl)phenyl)pyridin-2(1H)-one], for which the IC50 (in general, the concentration that gives 50% inhibition) is 0.3 nM.

Still in this experiment, the particulars now being: human MGAT2 membranes expressed in Sf9 cells; 100 μM 2-oleoylglycerol, 15 μM oleoyl-coenzyme A; read-out: h-MGAT LCMS IC50.
On to `CCOc1ccc(NC(=O)c2c(-c3ccc(N(C)C)cc3)cc(C3(F)CCCCC3)[nH]c2=O)cc1` [Example 39, 4-(4-(Dimethylamino)phenyl)-N-(4-ethoxyphenyl)-6-(1-fluorocyclohexyl)-2-oxo-1,2-dihydropyridine-3-carboxamide], for which the concentration for half-maximal inhibition (IC50) is 139 nM.

On to `Cc1ccc(-c2cc(-c3ccc(OCCCCCC(F)(F)F)c(C)c3)[nH]c(=O)c2-c2nnn[nH]2)cc1` [Example 70, 6-(3-Methyl-4-((6,6,6-trifluorohexyl)oxy)phenyl)-3-(1H-tetrazol-5-yl)-4-(p-tolyl)pyridin-2(1H)-one], for which the IC50 is 97 nM. Same read-out and setting: then `Cc1ccc(-c2c(F)c(-c3ccc(OCCCCCC(F)(F)F)cc3)[nH]c(=O)c2C(=O)NS(C)(=O)=O)cc1` [Example 117, 5-Fluoro-N-(methylsulfonyl)-2-oxo-4-(p-tolyl)-6-(4-((6,6,6-trifluorohexyl)oxy)phenyl)-1,2-dihydropyridine-3-carboxamide], with 29 nM; and `O=c1[nH]c(-c2ccc(OCCCCCC(F)(F)F)cc2)cc(-c2ccn(C3CC3)n2)c1-c1nnn[nH]1` [Example 107], with 99 nM. On the same count and under the same terms, the result for `CCCCCc1ccc(-c2c(C3CCCC3)[nH]c(=O)c(C(=O)Nc3ccc(OCC)cc3)c2-c2ccc(C)cc2)cc1` [Example 40, 6-Cyclopentyl-N-(4-ethoxyphenyl)-2-oxo-5-(4-pentylphenyl)-4-(p-tolyl)-1,2-dihydropyridine-3-carboxamide] reads 390 nM; that for `CCOc1ccc(NC(=O)c2c(-c3cnc(N(C)C)s3)cc(C3CCCCC3)[nH]c2=O)cc1` [Example 8, 6-Cyclohexyl-4-(2-(dimethylamino)thiazol-5-yl)-N-(4-ethoxyphenyl)-2-oxo-1,2-dihydropyridine-3-carboxamide], 50 nM; that for `Cc1ccc(-c2cc(-c3ccc(OCCCCCC(F)(F)F)cc3Cl)[nH]c(=O)c2C(=O)Nc2ccc(OC(F)(F)F)cc2)cc1` [Example 131, 6-(2-Chloro-4-((6,6,6-trifluorohexyl)oxy)phenyl)-2-oxo-4-(p-tolyl)-Ar-(4-(trifluoromethoxy)phenyl)-1,2-dihydropyridine-3-carboxamide], 7 nM.

For `CCOc1ccc(NC(=O)c2c(-c3ccc(C)cc3)cc(-c3ccc(OCCCC(F)(F)F)cc3F)[nH]c2=O)cc1` [Example 114, N-(4-Ethoxyphenyl)-6-(2-fluoro-4-(4,4,4-trifluorobutoxy)phenyl)-2-oxo-4-(p-tolyl)-1,2-dihydropyridine-3-carboxamide], the 50% inhibitory concentration (IC50) was 14 nM.

`CCOc1ccc(NC(=O)c2c(-c3ccc(C)cc3)c(F)c(C3CCCCC3)[nH]c2=O)cc1` [Example 38, 6-Cyclohexyl-N-(4-ethoxyphenyl)-5-fluoro-2-oxo-4-(p-tolyl)-1,2-dihydropyridine-3-carboxamide]: the half-maximal inhibitory concentration (IC50) is 1250 nM. On the same count and under the same terms, then `CCc1ccc(-c2cc(-c3ccc(OCCCC(F)(F)F)cc3F)[nH]c(=O)c2C(=O)Nc2ccc(OC(F)(F)F)cc2)s1` [Example 116, 4-(5-Ethylthiophen-2-yl)-6-(2-fluoro-4-(4,4,4-trifluorobutoxy)phenyl)-2-oxo-N-(4-(trifluoromethoxy)phenyl)-1,2-dihydropyridine-3-carboxamide], with 17 nM; and `CCc1cnc(-c2cc(-c3ccc(OCCCCCC(F)(F)F)cc3F)[nH]c(=O)c2-c2nnn[nH]2)s1` [Example 148, 4-(5-Ethylthiazol-2-yl)-6-(2-fluoro-4-((6,6,6-trifluorohexyl)oxy)phenyl)-3-(1H-tetrazol-5-yl)pyridin-2(1H)-one], with 0.8 nM. On the same count and under the same terms, then `CCOc1ccc(NC(=O)c2c(-c3cnc(N(C)C)s3)cc(-c3ccc(OCCCC(F)(F)F)cc3)[nH]c2=O)cc1` [Example 67], with 2 nM. On the same count and under the same terms, the result for `Cc1ccc(-c2cc(C3CCCCC3)[nH]c(=O)c2C(=O)Nc2cccnc2)cc1` [Example 37, 6-Cyclohexyl-2-oxo-N-(pyridin-3-yl)-4-(p-tolyl)-1,2-dihydropyridine-3-carboxamide] reads 543 nM. As for `CCC/C=C/c1ccc(-c2cc(-c3ccc(N(C)C)cc3)c(-c3nn[nH]n3)c(=O)[nH]2)cc1` [Example 80, (E)-4-(4-(Dimethylamino)phenyl)-6-(4-(pent-1-en-1-yl)phenyl)-3-(2H-tetrazol-5-yl)pyridin-2(1H)-one], the 50% inhibitory concentration (IC50) was determined as 168 nM. On to `CCCC1CC=C(c2ccc(-c3cc(-c4ccc(CC)s4)c(-c4nn[nH]n4)c(=O)[nH]3)cc2)CC1` (centres unmarked) [Example 164, 4-(5-Ethylthiophen-2-yl)-6-[4-(4-propylcyclohex-1-en-1-yl)phenyl]-3-(2H-1,2,3,4-tetrazol-5-yl)-1,2-dihydropyridin-2-one], for which the IC50 turned out to be 55 nM. Same read-out and setting: then `CCOc1cc(OCCCC(F)(F)F)ccc1-c1cc(-c2ccc(C)cc2)c(C(=O)NS(=O)(=O)C2CC2)c(=O)[nH]1` [Example 126, N-(Cyclopropylsulfonyl)-6-(2-ethoxy-4-(4,4,4-trifluorobutoxy)phenyl)-2-oxo-4-(p-tolyl)-1,2-dihydropyridine-3-carboxamide], with 43 nM. Regarding `O=c1[nH]c(-c2ccc(OCCCC(F)(F)F)cc2)cc(-c2ccn(C3CC3)n2)c1-c1nn[nH]n1` [Example 76, 4-(1-Cyclopropyl-1H-pyrazol-3-yl)-3-(2H-tetrazol-5-yl)-6-(4-(4,4,4-trifluorobutoxy)phenyl)pyridin-2(1H)-one], the IC50 was 87 nM. Still for that read-out and setting: then `O=c1cc(-c2ncc(C3CC3)s2)cc(-c2ccc(OCCCCCC(F)(F)F)cc2F)[nH]1` [Example 165, 4-(5-Cyclopropyl-1,3-thiazol-2-yl)-6-{2-fluoro-4-[(6,6,6-trifluorohexyl)oxy]phenyl}-1,2-dihydropyridin-2-one], with 420 nM; and `CCc1ccc(-c2cc(-c3ccc(/C=C/C4CC4)cc3)[nH]c(=O)c2-c2nn[nH]n2)s1` [Example 142, (E)-6-(4-(2-Cyclopropylvinyl)phenyl)-4-(5-ethylthiophen-2-yl)-3-(2H-tetrazol-5-yl)pyridin-2(1H)-one], with 4 nM; and `CN(C)c1ncc(-c2cc(-c3ccc(OCCCC(F)(F)F)cc3)[nH]c(=O)c2-c2nnn[nH]2)s1` [Example 68, 4-(2-(Dimethylamino)thiazol-5-yl)-3-(1H-tetrazol-5-yl)-6-(4-(4,4,4-trifluorobutoxy)phenyl)pyridin-2(1H)-one], with 673 nM. The same measure, in the same setting: the result for `CC(C)n1ccc(-c2cc(-c3ccc(CCCCC(F)(F)F)cc3)[nH]c(=O)c2-c2nn[nH]n2)n1` [Example 74, 4-(1-Isopropyl-1H-pyrazol-3-yl)-3-(2H-tetrazol-5-yl)-6-(4-(5.5,5-trifluoropentyl)phenyl)pyridin-2(1H)-one] reads 255 nM; that for `CC(C)(C)c1ccc(-c2cc(-c3ccc(OCCCC(F)(F)F)cc3)[nH]c(=O)c2C(=O)Nc2ccccc2)cc1` [Example 44, 4-(4-(tert-Butyl)phenyl)-2-oxo-N-phenyl-6-(4-(4,4,4-trifluorobutoxy)phenyl)-1,2-dihydropyridine-3-carboxamide], 6 nM. Same read-out and setting: the result for `O=C(NS(=O)(=O)C1CC1)c1c(-c2ccn(CC3CC3)n2)cc(-c2ccc(OCCCCCC(F)(F)F)cc2C(F)(F)F)[nH]c1=O` [Example 160, N-(Cyclopropanesulfonyl)-4-[1-(cyclopropylmethyl)-1H-pyrazol-3-yl]-2-oxo-6-{4-[(6,6,6-trifluorohexyl)oxy]-2-(trifluoromethyl)phenyl}-1,2-dihydropyridine-3-carboxamide] reads 12 nM; that for `O=c1[nH]c(-c2ccc(OCCCC(F)(F)F)cc2)cc(-c2ccn(CC3CC3)n2)c1-c1nnn[nH]1` [Example 97], 153 nM; that for `CS(=O)(=O)NC(=O)c1c(-c2ccn(CC3CC3)n2)cc(-c2ccc(OCCCC(F)(F)F)cc2)[nH]c1=O` [Example 98, 4-(1-(Cyclopropylmethyl)-1H-pyrazol-3-yl)-N-(methylsulfonyl)-2-oxo-6-(4-(4,4,4-trifluorobutoxy)phenyl)-1,2-dihydropyridine-3-carboxamide], 332 nM. On to `C=Cc1c(-c2ccc(CCCCC)cc2)[nH]c(=O)c(C(=O)Nc2ccc(OCC)cc2)c1-c1ccc(C)cc1` [Example 26, N-(4-Ethoxyphenyl)-2-oxo-6-(4-pentylphenyl)-4-(p-tolyl)-5-vinyl-1,2-dihydropyridine-3-carboxamide], for which the IC50 turned out to be 82 nM. `O=C(Nc1ccc(OC(F)(F)F)cc1)c1c(-c2ccn(CC3CC3)n2)cc(-c2ccc(OCCCCCC(F)(F)F)cc2F)[nH]c1=O` [Example 118, 4-(1-(Cyclopropylmethyl)-1H-pyrazol-3-yl)-6-(2-fluoro-4-((6,6,6-trifluorohexyl)oxy)phenyl)-2-oxo-N-(4-(trifluoromethoxy)phenyl)-1,2-dihydropyridine-3-carboxamide]: the concentration for half-maximal inhibition (IC50) was found to be 19 nM.

As for `CCc1ccc(-c2cc(-c3ccc(CCC4CC4)cc3)[nH]c(=O)c2-c2nn[nH]n2)s1` [Example 145, 6-(4-(2-Cyclopropylethyl)phenyl)-4-(5-ethylthiophen-2-yl)-3-(2H-tetrazol-5-yl)pyridin-2(1H)-one], the half-maximal inhibitory concentration (IC50) was determined as 10 nM.
